From PMC12284848, “Safe and Efficient Intracellular Release of SN38 via Lysosomal-Responsive SN38‑G Loaded Liposomes” (ACS Applied Bio Materials, 2025)
≈ marks a conversion by molar mass, not a printed value.

What was measured:
MCF-7 [1] = assay: Cellular regeneration of SN38 from SN38-G liposomes, MCF-7; type: cell-based, human; conditions: 100 μM inhibitor, 2 μM SN38-G liposomes
MDA-MB-231 [2] = assay: Cellular regeneration of SN38 from SN38-G liposomes, MDA-MB-231; type: cell-based; conditions: 100 μM inhibitor, 2 μM SN38-G liposomes
MCF-7 [3] = assay: Cell proliferation assay (CCK-8), MCF-7; type: cell-based, human
Method: Cells were seeded at a density of five thousand cells per well in 96-well plates and left to incubate overnight. Triplicate samples of free SN38, free SN38-G, and SN38-G liposomes were added at various dilutions and incubated for 24 h. CCK-8 stock solution was thawed at 37 °C in a water bath, 10 μL was added to each well, and plates were placed in the incubator for up to 4 h before measuring the absorbance at 450 nm using a microplate reader. Inhibition of cell proliferation was determined as 2 ″%ofinhibitioncomparedtocontrol^″=absorbanceat450nm(sample)×100/Absorbanceat450nm(control)
Sequential Esterification, Hydrolysis, Enzymatic Digestion, and Biological Activity Assessment of SN38-G to SN38. Commercial SN38-G was esterified in methanol or ethanol using sulfuric acid (H₂SO₄) and DMSO, following the procedure detailed in the Methods section under Synthesis of amphiphilic SN38-Gmet and SN38-Geth from SN38-G. The formation of the esters was monitored by analytical HPLC. For analysis, 2 µL of the reaction mixture was diluted in 248 µL of HPLC mobile phase, and 2.5 µL was injected with the fluorescence detector set at an excitation/emission wavelength of 375/430 nm. Hydrolysis of SN38-Gmet and SN38-Geth was carried out at 70 °C in 10 mM HEPES buffer, adjusted to pH 8. Samples were taken at 0, 5, 30, and 60 minutes, diluted in HPLC mobile phase (70% methanol, 25 mM citric acid, pH 3), and incubated at 70 °C for 10 minutes before injection. To generate active SN38, SN38-G was enzymatically cleaved by beta-glucuronidase following pH adjustment to 7 with phosphate buffer. The biological activity of the resulting SN38 was evaluated in an in-vitro cytotoxicity assay using human MCF-7 breast cancer cells, in comparison to commercial SN38. Cells were seeded at 5,000 cells per well in 96-well plates and incubated overnight. Triplicate samples of either commercial SN38 or SN38 generated from SN38-G were added at various dilutions and incubated for 24 hours. Afterward, 10 µL of CCK-8 solution (pre-warmed to 37 °C) was added to each well, and the plates were returned to the incubator for up to 4 hours. Absorbance was then measured at 450 nm using a microplate reader. Cell proliferation inhibition was calculated as: % inhibition = [Abs₄₅₀(sample) / Abs₄₅₀(control)] × 100 .
Cytotoxicity Assay in Cancerous and Non -Cancerous Cell Lines. […]
For the cytotoxicity assay cells were seeded at a density of 5,000 cells per well in 96 -well plates and allowed to adhere overnight. […] Absorbance at 450 nm was measured using a microplate reader. Cell viability was calculated as a percentage of untreated control cells. […]

[4] = Alkaline hydrolysis of SN38-G esters back to SN38-G (10 mM HEPES pH 8, 70 °C, HPLC); type: physicochemical; conditions: alkaline conditions (10 mM HEPES pH 8), after 1 h
Method: Accordingly, we formed a loadable amphiphilic SN38-G by esterification in excess alcohol at elevated temperatures using a sulfuric acid (H2SO4) catalyst. Esterification was performed in either methanol or ethanol, resulting in a methylester (SN38-G^met) and an ethylester (SN38-G^eth). Within 12 h, over 95% of SN38-G was esterified to SN38-G^met and SN38-G^eth (Figure a). Both esters are expected to have different levels of amphiphilicity due to their respective ester length, which might influence their loading behavior. We then tested the reversibility of the esterification to regenerate hydrophilic SN38-G through alkaline hydrolysis, which is a crucial step to ensure proper retention after loading. The hydrolysis rates of SN38-G^met and SN38-G^eth under alkaline conditions at 70 °C, which simulates the elevated pH compartment of liposomes during loading, were adequate. After 1 h, 96.1% (±2.6) of SN38-G^met and 95.5% (±2.1) of SN38-G^eth were hydrolyzed back to SN38-G (Figure b). The hydrolysis duration aligns with the typical incubation time between drugs and liposomes during loading. […]
Hydrolysis of SN38-G^met and SN38-G^eth was performed in 10 mM HEPES adjusted to pH 8 to simulate the alkaline internal compartment of the liposomes during drug loading. We monitored the reaction at 70 °C and took samples at 0, 5, 30, and 60 min of incubation time. […]

physchem [5] = conditions: for logP at 24 h: pH 6, Log P
Method: The log P, defined here by partitioning between 1-octanol and pH 6 buffer (Figure c), was measured to determine compound affinity for organic phases such as the lipid bilayer.
(§1) We added SN38, SN38-G, SN38-G^met, and SN38-G^eth in 10 mM MES pH 6 until it reached saturation and stopped dissolving. Saturated solutions were kept under agitation at room temperature for 24 h and centrifuged at 20,000g for 30 min at 24 °C. Analytical HPLC was then used to quantify the supernatants. The partitioning between 1-octanol and water was determined in 500 μL of 10 mM MES at pH 6 and 500 μL of 1-octanol. […] We allowed equilibration between the 2 phases for 24 h at room temperature under constant shaking. After this, the tubes were centrifuged at 20,000g for 30 min at 24 °C, and samples from each phase were analyzed by analytical HPLC. Using 70% methanol mobile phase conveniently dissolves 1-octanol, ensuring precise estimation of drugs’ quantities.

physchem [6] = conditions: for water solubility: 24 h, pH 6; for solubility at 24 h: pH 6, aqueous buffer, thermodynamic from solid, water solubility
Method: Water solubility tests were conducted in a pH 6 buffer (Figure b) to prevent the hydrolysis of the ester bond.
as §1

[7] = Drug stability: retention in liposomes on dialysis in 0.9% NaCl with 10% FBS at 37 °C; type: physicochemical; conditions: dialysis 0.9% NaCl with 10% FBS, over 15 days
Method: This stability is consistent with the physicochemical properties of SN38-G and its intraliposomal complexation with calcium, which limits membrane permeability.
We diluted SN38-G liposomes at 1 mg/mL of phospholipids in 2 mL of 0.9% NaCl, complemented with 10% FBS, before transferring to dialysis membrane (Visking Tubing, diameter 15.9 mm, molecular weight 12,000–14,000). We ran the dialysis at 37 °C in the dark against 2 L, to which we added 0.02% sodium azide to prevent bacterial growth, under constant stirring. Samples of 2 μL of liposomes were taken at different intervals and diluted in 248 μL of HPLC mobile phase (70% methanol, […], pH 3), lysed for 10 min at 70 °C, and injected (Volume = 2.5 μL) in the C18 reverse phase HPLC system to analyze the total remaining amount of encapsulated SN38-G.

[8] = system: lung adenocarcinoma (CL1-5); set-up: method as in ref 1 (SI); conditions: CL1-5-inoculated mice, free prodrug; ref 1 (SI); cited from earlier work
[9] = system: ovarian cancer model (OVCAR-3); set-up: method as in ref 7 (SI); conditions: equitoxic dose; ref 7 (SI); cited from earlier work
beta-glucuronidase = assay: Enzymatic digestion of SN38-G to SN38 by beta-glucuronidase; type: biochemical; conditions: 37 °C
MDA-MB-231 [10] = assay: Cell proliferation assay (CCK-8), MDA-MB-231; type: cell-based
Method: Cells were seeded at a density of five thousand cells per well in 96-well plates and left to incubate overnight. […] Inhibition of cell proliferation was determined as 2 ''%[…]^''=absorbanceat450nm(sample)×100/Absorbanceat450nm(control)

In the case of `O=C(O)[C@@H](O)[C@H]1OC(=O)[C@H](O)[C@H]1O` [D-saccharic acid 1,4-lactone], the “effect on production of SN38 in cells” value (MCF-7 [1]) is reported as “effectively suppressed” and the “effect on production of SN38 in cells” value (MDA-MB-231 [2]) is reported as “effectively suppressed”.

With `CCc1c2c(nc3ccc(OC(=O)N4CCC(N5CCCCC5)CC4)cc13)-c1cc3c(c(=O)n1C2)COC(=O)[C@]3(O)CC` [CPT-11] the cytotoxicity (MCF-7 [3]; MCF-7, 24 h, CCK-8) was “low cytotoxicity”.

In the case of `CCOC(=O)[C@H]1O[C@@H](Oc2ccc3nc4c(c(CC)c3c2)Cn2c-4cc3c(c2=O)COC(=O)[C@]3(O)CC)[C@H](O)[C@@H](O)[C@@H]1O` [SN38-G^eth], the “hydrolyzed back to SN38-G” value [4] is reported as 95.5%, the logP at 24 h (physchem [5]) is reported as 0.66 and the water solubility (physchem [6]) is reported as 1500 µg/mL (≈ 2.51 mM). The solubility at 24 h (physchem [6]) was about 1500 µg/mL (≈ 2.51 mM) and the retention within liposomes [7] was “rapid clearance”.

In the case of “9-aminocamptothecin glucuronide [9AC glucuronide]”, the mice cured [8] is given as “Up to 85%”.

For `CCc1c2c(nc3ccc(O[C@@H]4O[C@H](C(=O)OC)[C@@H](O)[C@H](O)[C@H]4O)cc13)-c1cc3c(c(=O)n1C2)COC(=O)[C@]3(O)CC` [SN38-G^met], the “hydrolyzed back to SN38-G” value [4] was 96.1%, the logP at 24 h (physchem [5]) was 0.07 and the water solubility (physchem [6]) was 3860 µg/mL (≈ 6.63 mM). The solubility at 24 h (physchem [6]) was about 3860 µg/mL (≈ 6.63 mM) and the retention within liposomes [7] was “rapid clearance”.

For `COc1cccc2c1C(=O)c1c(O)c3c(c(O)c1C2=O)C[C@@](O)(C(=O)CO)C[C@@H]3O[C@H]1C[C@H](N)[C@H](O)[C@H](C)O1` [doxorubicin], the tumor inhibition [9] is given as 56%.

In the case of `CCc1c2c(nc3ccc(O[C@@H]4O[C@H](C(=O)O)[C@@H](O)[C@H](O)[C@H]4O)cc13)-c1cc3c(c(=O)n1C2)COC(=O)[C@]3(O)CC` [SN38-G, SN38 glucuronide], the “reduction of toxicity versus SN38” value (MCF-7 [3]; MCF-7) is reported as 728.5 fold, the “cleavage by beta-glucuronidase to SN38” value (beta-glucuronidase) is reported as “rapidly cleaved” and the “higher affinities for the aqueous phase” value (physchem [5]; 1-octanol vs pH 6 buffer) is reported as “over 775 fold”. The logP at 24 h (physchem [5]) was -2.89, the water solubility (physchem [6]) was 62800 µg/mL (≈ 110 mM) and the solubility at 24 h (physchem [6]) was about 59500 µg/mL (≈ 105 mM). For the same molecule, the retention within liposomes [7] was “excellent retention” and the “reduction of toxicity versus SN38” value (MDA-MB-231 [10]; MDA-MB-231) was 550.5 fold.

In the case of `CCc1c2c(nc3ccc(O)cc13)-c1cc3c(c(=O)n1C2)COC(=O)[C@]3(O)CC` [SN38, 7-ethyl-10-hydroxycamptothecin], the IC50 (MCF-7 [3]; Homo sapiens, MCF7, MCF-7, 24 h, CCK-8) is reported as 0.00582 µM, the “in vitro cytotoxicity of SN38 regenerated from reformed SN38-G” value (MCF-7 [3]; SN38 made by esterification, hydrolysis and beta-glucuronidase digestion of SN38-G, MCF-7, 24 h) is reported as “comparable to that of a commercial SN38 standard” and the “higher affinity for the organic phase” value (physchem [5]; 1-octanol vs pH 6 buffer) is reported as 53 fold. The logP at 24 h (physchem [5]) was 1.73, the solubility at 24 h (physchem [6]) was about 7.45 µg/mL (≈ 0.019 mM) and the IC50 (MDA-MB-231 [10]; Homo sapiens, MDA-MB-231, 24 h, CCK-8) was 0.024 µM.
